In patent US20230390224A1, “UNITARY ORAL DOSAGE FORM IN BASE OF SPHERICAL AND/OR SPHEROIDAL SHAPED PARTICLES” (ATOMIC PHARMACEUTICS INC., priority 2022, published 2023):
Counter-ions that a name gives are not always drawn.

Columns and labels:
[1] = cited from earlier work
[2] = cited from earlier work; remark: listed apart in the source
[3] = Release of API from gel particles into liquid medium B (spectrophotometry; Weibull Fmax, Higuchi release rate); format: physicochemical; settings: liquid medium B and liquid medium C
Protocol: To the measurements of APIs release, the APIs concentrations were determined spectrophotometrically, by sampling in a Thermo Spectronic Genesys 10 UV equipment. Each of the measurements were performed in duplicate or more trials. The wavelengths occupied will depend on each API tested (for example, 243 nm for acetaminophen, 230 nm for naproxen).
To evaluate each of the experiments carried out and adjust the concentration points during the release experiments, various methods were used: zero order models, first order, Higuchi, Hixson-Crowell, square root of the mass, root 3/2 of the mass, Weibull and Korsmeyer-Peppas. The model that best fits the concentration points during the release experiments was a Weibull model (Vasiliki Papadopoulou, Kosmas Kosmidis, Marilena Vlachou, Panos Macheras, “On the use of the Weibull function for the discernment of drug release mechanisms,” International Journal of Pharmaceutics 309 (2006) 44-50).
An example of the surprising effects of modification of these formulation design factors is shown below for the same API (acetaminophen or paracetamol), as an example of the different effects that can be achieved using the same amount of API in all formulations (120 mg of total acetaminophen in each example). […]

Row | SMILES | log P [1] | solubility in oily media / oil phase [2] | solubility in water [2] | release of API into the aqueous medium [3]
1 | CC(=O)Nc1ccc(O)cc1 [Acetaminophen, acetaminophen] | 4.6 | poorly soluble | poorly soluble | –
2 | CC(=O)Oc1ccccc1C(=O)O [Acetyl salicylic acid, acetyl salicylic acid] | – | slightly soluble | soluble | –
3 | C=C(C)[C@@H]1CCC(C)=C[C@H]1c1c(O)cc(CCCCC)cc1O [CBD, cannabinoidiol] | 7.75 | highly soluble | very slightly soluble | –
4 | CN(C)CCC(c1ccc(Cl)cc1)c1ccccn1 (stereo not shown) [Chlorphenamine maleate, chlorphenamine maleate] | 3.7 | – | – | –
5 | Cc1cccc(Nc2ccccc2C(=O)O)c1C [Mefenamic acid, mefenamic acid] | 4.2 | not soluble | very poorly soluble | no release
